Values joined by “and” are separate entries in the source; they are usually repeats but may differ in a detail not shown here. Equal entries are not always repeated.
Legend:
S. furcifera adults = test: Y-tube olfactometer behavioral trials; assay type: in vivo, Sogatella furcifera; conditions: odorant 50 µL/L vs hexane
How it was run: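 Single S. furcifera adults (2 days post-emergence, starved 0.5 h) chose between odorant (100 µL of 50 µL/L on filter paper) and hexane control in a glass Y-tube, charcoal-filtered humidified air 300 mL/min per arm, 25 ± 1 °C, 50% RH. Choice scored if insect passed half an arm and stayed >1 min within 10 min; 45 insects per compound, chi-squared test.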

SfurOBP1 = SfurOBP1 (Sogatella furcifera, UniProt V5T8N5); test: biochemical; assay type: binding; conditions: for Fluorescence competitive binding assay, fluorescence intensity: OBP1, three replicate columns
How it was run: (§1)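 In 50 mM Tris-HCl pH 7.4, odorants displace 1-NPN (2.0 µM) from 2.0 µM protein. Emission at 390–490 nm under 337 nm excitation is measured 2 min after competitor addition, in triplicate. Ki is obtained from IC50 and the 1-NPN dissociation constant.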

SfurOBP2 = SfurOBP2 (Sogatella furcifera, UniProt V5T759); test: biochemical; assay type: binding
How it was run: as §1

SfurOBP3 = SfurOBP3 (Sogatella furcifera, UniProt V5T818); test: biochemical; assay type: binding; conditions: for Fluorescence competitive binding assay, fluorescence intensity: OBP3, three replicate columns;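 for Fluorescence competitive binding assay, fluorescence intensity: competitor odorant at 2 to 20 µM with protein and 1-NPN both 2.0 µM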
How it was run: as §1

SfurOBP11 = SfurOBP11 (Sogatella furcifera, UniProt V5T6E3); test: biochemical; assay type: binding
How it was run: as §1
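Throughout, for Fluorescence competitive binding assay, fluorescence intensity: competitor odorant at 2 to 20 µM with protein and 1-NPN both 2.0 µM.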

Chain of SfurOBP11 (V5T6E3 entry or part of it): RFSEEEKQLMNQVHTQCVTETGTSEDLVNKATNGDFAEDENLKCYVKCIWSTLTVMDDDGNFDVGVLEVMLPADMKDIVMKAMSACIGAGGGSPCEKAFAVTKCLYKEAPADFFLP
Chain of SfurOBP3 (V5T818 entry or part of it): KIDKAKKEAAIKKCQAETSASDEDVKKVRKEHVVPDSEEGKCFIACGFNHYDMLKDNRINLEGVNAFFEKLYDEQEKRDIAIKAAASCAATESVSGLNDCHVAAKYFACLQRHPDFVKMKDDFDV
Chain of SfurOBP2 (V5T759 entry or part of it): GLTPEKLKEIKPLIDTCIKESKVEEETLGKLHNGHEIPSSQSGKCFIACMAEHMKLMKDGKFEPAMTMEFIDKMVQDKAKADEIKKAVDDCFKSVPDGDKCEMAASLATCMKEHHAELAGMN
Chain of SfurOBP1 (V5T8N5 entry or part of it): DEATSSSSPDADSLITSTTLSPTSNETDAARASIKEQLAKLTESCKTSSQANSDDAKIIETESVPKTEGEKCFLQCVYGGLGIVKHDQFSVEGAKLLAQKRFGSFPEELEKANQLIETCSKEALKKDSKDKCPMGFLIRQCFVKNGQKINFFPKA

IC50 (SfurOBP1): > 20 µM
Fluorescence competitive binding assay, fluorescence intensity (SfurOBP1; ligand concentration 2 (μM)): 7051 and 7963 and 8084
Fluorescence competitive binding assay, fluorescence intensity (SfurOBP1; ligand concentration 4 (μM)): 8179 and 8456 and 7621
Fluorescence competitive binding assay, fluorescence intensity (SfurOBP1; ligand concentration 6 (μM)): 7891 and 8214 and 10941
Fluorescence competitive binding assay, fluorescence intensity (SfurOBP1; ligand concentration 8 (μM)): 7486 and 8333 and 7729
Fluorescence competitive binding assay, fluorescence intensity (SfurOBP1; ligand concentration 10 (μM)): 7166 and 7631 and 8078
Fluorescence competitive binding assay, fluorescence intensity (SfurOBP1; ligand concentration 12 (μM)): 13786 and 8045 and 7592
Fluorescence competitive binding assay, fluorescence intensity (SfurOBP1; ligand concentration 14 (μM)): 7676 and 7139 and 7314
Fluorescence competitive binding assay, fluorescence intensity (SfurOBP1; ligand concentration 16 (μM)): 6374 and 6355 and 6393
Fluorescence competitive binding assay, fluorescence intensity (SfurOBP1; ligand concentration 18 (μM)): 6677 and 6433 and 6722
Fluorescence competitive binding assay, fluorescence intensity (SfurOBP1; ligand concentration 20 (μM)): 6744 and 6442 and 6578
IC50 (SfurOBP2): 20 µM
Fluorescence competitive binding assay, OBP2 (raw fluorescence reading) (SfurOBP2; ligand concentration 2 (unit not given), replicate column 1 of 3): 20663
Fluorescence competitive binding assay, OBP2 (raw fluorescence reading) (SfurOBP2; ligand concentration 2 (unit not given), replicate column 2 of 3): 19168
Fluorescence competitive binding assay, OBP2 (raw fluorescence reading) (SfurOBP2; ligand concentration 2 (unit not given), replicate column 3 of 3): 19828
Fluorescence competitive binding assay, OBP2 (raw fluorescence reading) (SfurOBP2; ligand concentration 4 (unit not given), replicate column 1 of 3): 20326
Fluorescence competitive binding assay, OBP2 (raw fluorescence reading) (SfurOBP2; ligand concentration 4 (unit not given), replicate column 2 of 3): 19347
Fluorescence competitive binding assay, OBP2 (raw fluorescence reading) (SfurOBP2; ligand concentration 4 (unit not given), replicate column 3 of 3): 18863
Fluorescence competitive binding assay, OBP2 (raw fluorescence reading) (SfurOBP2; ligand concentration 6 (unit not given), replicate column 1 of 3): 19895
Fluorescence competitive binding assay, OBP2 (raw fluorescence reading) (SfurOBP2; ligand concentration 6 (unit not given), replicate column 2 of 3): 18583
Fluorescence competitive binding assay, OBP2 (raw fluorescence reading) (SfurOBP2; ligand concentration 6 (unit not given), replicate column 3 of 3): 19617
Fluorescence competitive binding assay, OBP2 (raw fluorescence reading) (SfurOBP2; ligand concentration 8 (unit not given), replicate column 1 of 3): 17627
Fluorescence competitive binding assay, OBP2 (raw fluorescence reading) (SfurOBP2; ligand concentration 8 (unit not given), replicate column 2 of 3): 19078
Fluorescence competitive binding assay, OBP2 (raw fluorescence reading) (SfurOBP2; ligand concentration 8 (unit not given), replicate column 3 of 3): 16731
Fluorescence competitive binding assay, OBP2 (raw fluorescence reading) (SfurOBP2; ligand concentration 10 (unit not given), replicate column 1 of 3): 16901
Fluorescence competitive binding assay, OBP2 (raw fluorescence reading) (SfurOBP2; ligand concentration 10 (unit not given), replicate column 2 of 3): 16412
Fluorescence competitive binding assay, OBP2 (raw fluorescence reading) (SfurOBP2; ligand concentration 10 (unit not given), replicate column 3 of 3): 15901
Fluorescence competitive binding assay, OBP2 (raw fluorescence reading) (SfurOBP2; ligand concentration 12 (unit not given), replicate column 1 of 3): 15640
Fluorescence competitive binding assay, OBP2 (raw fluorescence reading) (SfurOBP2; ligand concentration 12 (unit not given), replicate column 2 of 3): 15758
Fluorescence competitive binding assay, OBP2 (raw fluorescence reading) (SfurOBP2; ligand concentration 12 (unit not given), replicate column 3 of 3): 15363
Fluorescence competitive binding assay, OBP2 (raw fluorescence reading) (SfurOBP2; ligand concentration 14 (unit not given), replicate column 1 of 3): 13711
Fluorescence competitive binding assay, OBP2 (raw fluorescence reading) (SfurOBP2; ligand concentration 14 (unit not given), replicate column 2 of 3): 13915
Fluorescence competitive binding assay, OBP2 (raw fluorescence reading) (SfurOBP2; ligand concentration 14 (unit not given), replicate column 3 of 3): 13962
Fluorescence competitive binding assay, OBP2 (raw fluorescence reading) (SfurOBP2; ligand concentration 16 (unit not given), replicate column 1 of 3): 12366
Fluorescence competitive binding assay, OBP2 (raw fluorescence reading) (SfurOBP2; ligand concentration 16 (unit not given), replicate column 2 of 3): 12873
Fluorescence competitive binding assay, OBP2 (raw fluorescence reading) (SfurOBP2; ligand concentration 16 (unit not given), replicate column 3 of 3): 12910
Fluorescence competitive binding assay, OBP2 (raw fluorescence reading) (SfurOBP2; ligand concentration 18 (unit not given), replicate column 1 of 3): 12338
Fluorescence competitive binding assay, OBP2 (raw fluorescence reading) (SfurOBP2; ligand concentration 18 (unit not given), replicate column 2 of 3): 12028
Fluorescence competitive binding assay, OBP2 (raw fluorescence reading) (SfurOBP2; ligand concentration 18 (unit not given), replicate column 3 of 3): 11737
Fluorescence competitive binding assay, OBP2 (raw fluorescence reading) (SfurOBP2; ligand concentration 20 (unit not given), replicate column 1 of 3): 11557
Fluorescence competitive binding assay, OBP2 (raw fluorescence reading) (SfurOBP2; ligand concentration 20 (unit not given), replicate column 2 of 3): 10983
Fluorescence competitive binding assay, OBP2 (raw fluorescence reading) (SfurOBP2; ligand concentration 20 (unit not given), replicate column 3 of 3): 11423
IC50 (SfurOBP3): 12 µM
Fluorescence competitive binding assay, fluorescence intensity (SfurOBP3; ligand concentration 2): 49137 and 48472 and 49801
Fluorescence competitive binding assay, fluorescence intensity (SfurOBP3; ligand concentration 4): 47017 and 46358 and 43965
Fluorescence competitive binding assay, fluorescence intensity (SfurOBP3; ligand concentration 6): 39740 and 42626 and 39389
Fluorescence competitive binding assay, fluorescence intensity (SfurOBP3; ligand concentration 8): 37430 and 36910 and 36009
Fluorescence competitive binding assay, fluorescence intensity (SfurOBP3; ligand concentration 10): 35904 and 33157 and 32677
Fluorescence competitive binding assay, fluorescence intensity (SfurOBP3; ligand concentration 12): 30694 and 33051 and 28374
Fluorescence competitive binding assay, fluorescence intensity (SfurOBP3; ligand concentration 14): 26192 and 26407 and 26489
Fluorescence competitive binding assay, fluorescence intensity (SfurOBP3; ligand concentration 16): 23097 and 23904 and 24653
Fluorescence competitive binding assay, fluorescence intensity (SfurOBP3; ligand concentration 18): 23846 and 23655 and 23476
Fluorescence competitive binding assay, fluorescence intensity (SfurOBP3; ligand concentration 20): 21994 and 24647 and 23321
binding affinity to SfurOBP3 (in words) (SfurOBP3; SfurOBP3): high binding affinities
IC50 (SfurOBP11): 19.9 µM
Fluorescence intensity, fluorescence competitive binding assay, OBP11 (SfurOBP11; ligand concentration 2, replicate 1): 28050
Fluorescence intensity, fluorescence competitive binding assay, OBP11 (SfurOBP11; ligand concentration 2, replicate 2): 27736
Fluorescence intensity, fluorescence competitive binding assay, OBP11 (SfurOBP11; ligand concentration 2, replicate 3): 27612
Fluorescence intensity, fluorescence competitive binding assay, OBP11 (SfurOBP11; ligand concentration 4, replicate 1): 28634
Fluorescence intensity, fluorescence competitive binding assay, OBP11 (SfurOBP11; ligand concentration 4, replicate 2): 28801
Fluorescence intensity, fluorescence competitive binding assay, OBP11 (SfurOBP11; ligand concentration 4, replicate 3): 26168
Fluorescence intensity, fluorescence competitive binding assay, OBP11 (SfurOBP11; ligand concentration 6, replicate 1): 26910
Fluorescence intensity, fluorescence competitive binding assay, OBP11 (SfurOBP11; ligand concentration 6, replicate 2): 26403
Fluorescence intensity, fluorescence competitive binding assay, OBP11 (SfurOBP11; ligand concentration 6, replicate 3): 26657
Fluorescence intensity, fluorescence competitive binding assay, OBP11 (SfurOBP11; ligand concentration 8, replicate 1): 23184
Fluorescence intensity, fluorescence competitive binding assay, OBP11 (SfurOBP11; ligand concentration 8, replicate 2): 24499
Fluorescence intensity, fluorescence competitive binding assay, OBP11 (SfurOBP11; ligand concentration 8, replicate 3): 24103
Fluorescence intensity, fluorescence competitive binding assay, OBP11 (SfurOBP11; ligand concentration 10, replicate 1): 21871
Fluorescence intensity, fluorescence competitive binding assay, OBP11 (SfurOBP11; ligand concentration 10, replicate 2): 21831
Fluorescence intensity, fluorescence competitive binding assay, OBP11 (SfurOBP11; ligand concentration 10, replicate 3): 22447
Fluorescence intensity, fluorescence competitive binding assay, OBP11 (SfurOBP11; ligand concentration 12, replicate 1): 20048
Fluorescence intensity, fluorescence competitive binding assay, OBP11 (SfurOBP11; ligand concentration 12, replicate 2): 20727
Fluorescence intensity, fluorescence competitive binding assay, OBP11 (SfurOBP11; ligand concentration 12, replicate 3): 21593
Fluorescence intensity, fluorescence competitive binding assay, OBP11 (SfurOBP11; ligand concentration 14, replicate 1): 17047
Fluorescence intensity, fluorescence competitive binding assay, OBP11 (SfurOBP11; ligand concentration 14, replicate 2): 18839
Fluorescence intensity, fluorescence competitive binding assay, OBP11 (SfurOBP11; ligand concentration 14, replicate 3): 19615
Fluorescence intensity, fluorescence competitive binding assay, OBP11 (SfurOBP11; ligand concentration 16, replicate 1): 15254
Fluorescence intensity, fluorescence competitive binding assay, OBP11 (SfurOBP11; ligand concentration 16, replicate 2): 16765
Fluorescence intensity, fluorescence competitive binding assay, OBP11 (SfurOBP11; ligand concentration 16, replicate 3): 16613
Fluorescence intensity, fluorescence competitive binding assay, OBP11 (SfurOBP11; ligand concentration 18, replicate 1): 17103
Fluorescence intensity, fluorescence competitive binding assay, OBP11 (SfurOBP11; ligand concentration 18, replicate 2): 17364
Fluorescence intensity, fluorescence competitive binding assay, OBP11 (SfurOBP11; ligand concentration 18, replicate 3): 18167
Fluorescence intensity, fluorescence competitive binding assay, OBP11 (SfurOBP11; ligand concentration 20, replicate 1): 16580
Fluorescence intensity, fluorescence competitive binding assay, OBP11 (SfurOBP11; ligand concentration 20, replicate 2): 17841
Fluorescence intensity, fluorescence competitive binding assay, OBP11 (SfurOBP11; ligand concentration 20, replicate 3): 17555
Structure (SMILES): CC(=O)/C=C/C1=C(C)CCCC1(C)C [β-Ionone]
behavioral response of S. furcifera (in words) (S. furcifera adults): strongly attracted
number of insects choosing hexane arm (S. furcifera adults; adults): 18
number of insects choosing volatilies arm (S. furcifera adults; adults): 10
number of insects failed (no choice) (S. furcifera adults; adults): 12

— PMC6409085, “Three odorant-binding proteins are involved in the behavioral response of Sogatella furcifera to rice plant volatiles” (PeerJ, 2019)
